Laboratory results: patent EP0541497A1, “Prolineamide derivatives as enhancers of learning processes and memory and pharmaceutical compositions containing same” (Sigma-Tau Industrie Farmaceutiche Riunite S.p.A., priority 1991, dated 1993)

Key:
[1] = relative to oxiracetan; cited from earlier work
ECS-induced amnesia = experiment: Passive avoidance test, amnesia induced by electroconvulsive shock (ECS); type: in vivo, Male CDI mice; conditions: percentage of amnesia reversal, given 30 minutes before training, retention 24 hours later
Description: In order to assess the antiamnesic activity the passive avoidance test in mince was used.
Male CDI mice weighing 25-26 g (charles River, Germany) fed on a normal diet, were used.
The compounds were administered i.p.; doses equimolar to 9.0 and 0.9 mg piracetam kg ⁻¹ were used.
The water-soluble compounds were dissolved in saline; the insoluble ones were dissolved in dimethylsulfoxide and then diluted in 2% Tween 80, ratio 1:4.
The apparatus for passive avoidance conditioning was a black plastic chamber (42 x 42 cm, height 40 cm), provided with a floor constructed of metal that could be electrified. From the front wall extended a white runway, 30 cm long and 10 cm wide provided with side walls 12 cm high, which led into the box through a guillotine door.
The animals, 30 minutes following treatment, were placed on the runways. After one minute of adaptation, the door was raised and the time employed by the animal to enter the darkened with all four feet, was recorded.
Upon entry, the guillotine door was lowered and 3 seconds thereafter the rods were electrified, 0.24 mA for 2 seconds. The mouse was then removed from the chamber and immediately administered and electroshock delivered through spring clips attached to the ears (square wave, intensity 20 mA, amplitude 0.6 msec, duration 0.5 s, frequency 50 Hz). Immediately thereafter the animal was placed in the housing cage. Retention was assessed 24 hours later by placing the animal on the runways and again evaluating the latency in entering the chamber, using an end-point of 300 s (crf. Brammer, loc. cit.).
In each experiment, two groups of animals in addition to the treated ones were used, that were defined as follows: • (1) ceiling control animals (treated with placebo and not subjected to ECS amnesia treatment) to ensure that these animals not treated with the amnesia agent remembered the task; • (2) base-line control animals (treated with placebo and subjected to ECS amnesia treatment) to ensure that ECS produced amnesia in the animals not treated with the compounds of the present invention.
The sum ΣAij encompasses all the possible pairs obtained by combining each term Xi with each term Xj.

male CDI Mice = experiment: Behavioural profile (Irwin test); type: in vivo; conditions: oral, the other doses (equimolar to 23, 5.4 and 1.4 mg piracetam/10mL/kg), monitored for 6 hours
Description: (§1) The behavioural profile was assessed in male CDI Mice (Charles River, Italy) weighing 22-24 g, using the Irwin test (IRWIN S., Drug screening and evaluation procedures; 136, 123-128, 1962). The animals had been caged under normal conditions and kept fasting for the last 18 hours.
(§2) Following administration of the compounds, the behaviour of the animals was monitored for 6 hours. The compounds were suspended in 10% arabic gum and orally administered at doses equimolar to 90, 23, 5.4 and 1.4 mg piracetam/10mL/kg of body weight.
(§3) The animals of the control groups were administered 10% arabic gum (10mL/kg, orally).

[2] = Behavioural profile (Irwin test); type: in vivo, male CDI Mice; conditions: mouse, in vivo; oral, 90 mg/kg (equimolar to piracetam), monitored for 6 hours; read-out: death rate
Description: as §1, §2, §3

[3] = 0.9 mg/kg (i.p., dose equimolar to 0.9 mg piracetam kg-1)
[4] = 9mg/kg (i.p., dose equimolar to 9.0 mg piracetam kg-1)

Row | Compound | doses for nootropic activity, times as high as those of oxiracetan [1] | %AR (ECS-induced amnesia; [3]) [%] | %AR (ECS-induced amnesia; [4]) [%] | toxicity (male CDI Mice) | mortality at 6 h [2] [%]
1 | O=C1CC[C@@H](C(=O)O)N1 [L-pyroglutamic acid] | 5-10 times | – | – | – | –
2 | NC(=O)CN1CCCC1=O [Piracetam, reference compound] | – | 0 | 0 | – | –
3 | CC(C)N(CCNC(=O)[C@@H]1CCCN1C(=O)OCc1ccccc1)C(C)C [ST 691, (S)-1-[N-(BENZYLOXYCARBONYL)-PROLYL]-2,2(DIISOPROPYL)-ETHYLENDIAMINE] | – | 52 | 0 | non toxic | 100
4 | O=C(NCCO)[C@@H]1CCCN1C(=O)OCc1ccccc1 [ST 704, (S)-N-[N-(BENZYLOXYCARBONYL)-PROLYL]-ETHANOLAMINE] | – | 0 | 46 | – | –
5 | O=C([C@@H]1CCCN1C(=O)OCc1ccccc1)N1CCN(c2cccc(Cl)c2)CC1 [ST 792, (S)-1-[N-(BENZYLOXYCARBONYL)-PROLYL]-4-(3-CHLOROPHENYL)-PIPERAZINE] | – | 26 | 0 | – | –
6 | CC(C)N(CCNC(=O)[C@@H]1CCCN1C=O)C(C)C [ST 849, (S)-1-[N-(FORMYL)-PROLYL]-2.2(DIISOPROPYL)-ETHYLENDIAMINE] | – | 3 | 59 | – | –
